Test results from EPA's ToxValDB 9.5 (doi:10.2903/j.efsa.2016.4374).
In brackets after ≈: the same amount, converted by molar mass.

Key:
[1] = system: Folsomia candida; conditions: chronic/long-term; duration: 28 days; mortality
[2] = system: Cyprinus carpio; conditions: acute; mortality
[3] = system: Hypoaspis aculeifer; conditions: chronic/long-term; duration: 14 days; mortality
[4] = system: Danio rerio; conditions: chronic; growth
[5] = system: Colinus virginianus
[6] = system: Pleurozium sp.; conditions: acute; growth
[7] = system: Bibionidae; conditions: chronic/long-term; growth
[8] = system: Rattus norvegicus
[9] = system: Anas platyrhynchos; conditions: acute; oral; unspecified; mortality
[10] = system: Apis mellifera; conditions: acute, duration: 48 hours, mortality
[11] = system: Myriophyllum spicatum; conditions: acute; growth
[12] = system: Canidae; conditions: subchronic; duration: 90 days; oral; Dog Other; organ weight
[13] = system: Tagia sp.; conditions: chronic/long-term; duration: 56 days; reproduction
[14] = system: Daphnia magna; conditions: chronic/long-term; reproduction
[15] = system: Typhlodromus pyri; experiment: LR50; higher = less toxic; conditions: not reported; mortality

Structure (SMILES): CCOC1Oc2ccc(OS(C)(=O)=O)cc2C1(C)C (centres undefined) [Ethofumesate]
- NOEC [1]: 13.3 mg/kg
- LC50 [2]: 10.9 µg/mL (≈ 38.1 µM)
- NOEC [3]: 22.1 mg/kg
- NOEC [4]: 0.156 mg/L
- LD50 ([5]; acute, oral, mortality): 3780 mg/kg-day
- NOEL ([5]; reproduction developmental): 265 mg/kg-day
- NOEC [6]: 9.68 mg/L
- NOEC [7]: 3.82 mg/L
- LD50 ([8]; acute, oral, mortality): > 5000 mg/kg-day
- NOAEL ([8]; chronic, duration: 2 years, oral, F, organ weight): 101 mg/kg-day
- NOAEL ([8]; reproduction developmental, body weight): 60.9 mg/kg-day
- LD50 [9]: 3780 mg/kg-day
- LD50 ([10]; dermal): > 50 µg/piece
- LD50 ([10]; oral, unspecified): > 50 µg/piece
- NOEC [11]: 0.25 mg/L
- NOAEL [12]: 250 mg/kg-day
- NOEC [13]: 12.5 mg/kg
- NOEC [14]: 0.25 mg/L
- LR50 [15]: > 1000 g/ha
